Assay results: PMC6934184, “Selective DNA-PKcs inhibition extends the therapeutic index of localized radiotherapy and chemotherapy” (The Journal of Clinical Investigation, 2019)

Biological target: T1, EPHA1 (Homo sapiens, UniProt P21709)
T1 construct: purchased Thermo Fisher Scientific (Life Technologies) SelectScreen
Experiment: SelectScreen Z'LYTE
Format: biochemical
Summary of the method: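 SelectScreen broad panel; activity (Z'LYTE, Adapta) plus binding formats. ATP: Km app for CSF1R Z'LYTE; 10 for CAMK1 Adapta. Readout = % per kinase.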

T1 sequence (P21709 26-976): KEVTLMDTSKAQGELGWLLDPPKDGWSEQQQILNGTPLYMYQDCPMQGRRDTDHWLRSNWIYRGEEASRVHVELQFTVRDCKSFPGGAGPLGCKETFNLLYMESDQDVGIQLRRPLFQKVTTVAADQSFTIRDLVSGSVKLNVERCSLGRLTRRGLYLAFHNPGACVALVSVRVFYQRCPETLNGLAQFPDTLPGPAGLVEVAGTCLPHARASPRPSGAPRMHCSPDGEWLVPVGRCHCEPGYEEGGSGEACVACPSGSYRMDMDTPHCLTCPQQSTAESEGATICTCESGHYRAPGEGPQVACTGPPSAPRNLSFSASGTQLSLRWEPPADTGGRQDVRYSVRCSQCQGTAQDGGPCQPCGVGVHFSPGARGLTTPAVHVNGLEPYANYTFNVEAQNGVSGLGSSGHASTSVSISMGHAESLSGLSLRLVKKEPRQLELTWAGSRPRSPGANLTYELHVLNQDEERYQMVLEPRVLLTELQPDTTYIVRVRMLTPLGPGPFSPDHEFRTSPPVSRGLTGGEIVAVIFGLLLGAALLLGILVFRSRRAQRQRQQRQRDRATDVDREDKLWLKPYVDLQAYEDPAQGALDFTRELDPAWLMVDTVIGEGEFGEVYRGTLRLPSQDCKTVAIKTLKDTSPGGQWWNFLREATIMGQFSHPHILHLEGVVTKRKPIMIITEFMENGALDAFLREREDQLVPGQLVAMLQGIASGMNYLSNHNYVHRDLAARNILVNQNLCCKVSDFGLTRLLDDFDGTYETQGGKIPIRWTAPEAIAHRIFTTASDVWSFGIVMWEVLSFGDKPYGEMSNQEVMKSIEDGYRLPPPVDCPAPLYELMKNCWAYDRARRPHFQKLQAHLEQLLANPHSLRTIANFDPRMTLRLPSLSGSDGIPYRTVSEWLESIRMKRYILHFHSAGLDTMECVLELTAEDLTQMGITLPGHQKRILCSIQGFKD

`CN(C(=O)CN1CCOCC1)c1ccc2sc3c(-c4cccc5c(=O)cc(N6CC7CCC(C6)O7)oc45)cccc3c2c1` [NU5455] was tested, and the inhibition at 1 µM was 2.7%.
